Reference: patent publication US5298494A, “Monosaccharides having anti-proliferation and anti-inflammatory activity, compositions and uses thereof” (Greenwich Pharmaceuticals Incorporated, priority 1993, dated 1994)
“Also recorded” adds a separate entry of the source. Where two headings read alike, the source gives them in different places.

System: T lymphocytes (normal mouse spleen cells) stimulated with ConA
Assay: Mouse Spleen Cell ConA Blastogenesis Assay
Type: cell-based, mouse (C57Bl/6)
Conditions: for inhibition at 0.01 µg/mL / inhibition at 0.1 µg/mL / inhibition at 1 µg/mL / inhibition at 2.5 µg/mL / inhibition at 10 µg/mL / inhibition at 25 µg/mL / inhibition at 100 µg/mL / inhibition at 300 µg/mL / inhibition at 750 µg/mL: Mus musculus, T-lymphocyte; for inhibition at 0.1 µg/mL: compound 0.1 ug/ml; for inhibition at 2.5 µg/mL: compound 2.5 ug/ml
Text: It is well known that several plant lectins, when cultured in vitro with lymphocytes, stimulate cellular activation and proliferation. Concanavolin, (ConA) selectively stimulates the blastogenic response of T lymphocytes.
Six to 8 week old male C57Bl/6 mice were purchased from Harlan Sprague Dawley (Indianapolis, Ind.).
Spleens were removed and were homogenized to obtain a single cell suspension. Erythrocytes were lysed by hypotonic shock. Upon determination of the viability and concentration of the lymphoid cells, they were adjusted to 4×10^6 cells/ml in culture medium (RPMI-1640) supplemented with 10% fetal bovine serum; 100 ug/ml streptomycin; 100 U/ml penicillin, 0.2M hepes buffer; 5×10^-5 M 2-mercaptoethanol and 2 mM glutamine). seeded into microtiter plate wells at 2×10^5 cells/0.050 ml/well. To these cultures were added various doses of experimental compounds and ConA at a final concentration of 4 or 1 ug/ml. Control cultures consisted of cells, ConA and culture medium containing the vehicle, DMSO only. […] For the testing of the methyl 1,3-O-isopropylidene-6-O-n-heptyl-α-D-fructofuranoside compound indomethacin and NDGA were used as controls. All cultures were run in triplicate.
Solutions of compounds of the invention in DMSO were prepared and dilutions were made in culture medium. Assay concentrations were either: 1, 2.5, 10, 25, 100, 300 and 750 ug/ml or 0.001, 0.01, 0.1, 1, 2.5, 10, 25 and 100 ug/ml.
Cultures were incubated for 3 days at 37° C. in a humidified atmosphere of 5% of CO2 in air. For the last 18 hours of culture, 1 uCi of ^3 H-thymidine was also incubated in each well. The cells were precipitated by a multi-channel harvester. The amount of ^3 H-thymidine incorporated by the cultures, as a measure of cell proliferation, was measured in a liquid scintillation counter. The amount of radioactive incorporation is proportional to the amount of cellular proliferation in individual wells. The students T test was used to determine the significance of the difference between experimental and control values.

[1] = ConA 1 ug/ml, read-out: % change from control, ConA blastogenic response
[2] = ConA 1 ug/ml, compound 10 ug/ml, read-out: % change from control, ConA blastogenic response
[3] = ConA 1 ug/ml, compound 100 ug/ml, read-out: % change from control, ConA blastogenic response
[4] = ConA 4 ug/ml, read-out: % change from control, ConA blastogenic response
[5] = ConA 4 ug/ml, compound 1 ug/ml, read-out: % change from control, ConA blastogenic response
[6] = ConA 4 ug/ml, compound 10 ug/ml, read-out: % change from control, ConA blastogenic response
[7] = ConA 4 ug/ml, compound 25 ug/ml, read-out: % change from control, ConA blastogenic response
[8] = ConA 4 ug/ml, compound 100 ug/ml, read-out: % change from control, ConA blastogenic response
[9] = ConA 1 ug/ml, compound 10 ug/ml
[10] = ConA 1 ug/ml, compound 100 ug/ml
[11] = ConA 1 ug/ml, compound 300 ug/ml
[12] = ConA 1 ug/ml, compound 750 ug/ml
[13] = ConA 4 ug/ml, compound 10 ug/ml
[14] = ConA 4 ug/ml, compound 25 ug/ml
[15] = ConA 4 ug/ml, compound 100 ug/ml
[16] = ConA 4 ug/ml, compound 300 ug/ml
[17] = ConA 4 ug/ml, compound 750 ug/ml

## CCCCCCCC(=O)OC[C@H]1O[C@@]2(OC)COC(C)(C)O[C@H]2[C@@H]1O [Ii, methyl 1,3-O-isopropylidene-6-O-octanoyl-α-D-fructofuranoside]
  effect on ConA T lymphocyte proliferation in words: less potent inhibitor of the mitogen induced T lymphocyte proliferative response; also recorded: significant inhibition observed at all dose levels on the 1 ug/ml ConA cultures
ConA 1 ug/ml, 0.01 ug/ml, read-out: % Change from Control (Table II)
  inhibition at 0.01 µg/mL: -11%
ConA 1 ug/ml, compound 0.01 ug/ml, read-out: % change from control, ConA blastogenic response
  inhibition at 0.01 µg/mL: -7%
[1]
  inhibition at 0.1 µg/mL: -21%
  inhibition at 2.5 µg/mL: -62%
ConA 1 ug/ml, compound 1 ug/ml, read-out: % change from control, ConA blastogenic response
  inhibition at 1 µg/mL: -52%
[2]
  inhibition at 10 µg/mL: -13%
ConA 1 ug/ml, compound 25 ug/ml, read-out: % change from control, ConA blastogenic response
  inhibition at 25 µg/mL: -41%
[3]
  inhibition at 100 µg/mL: 27%
ConA 4 ug/ml, 0.01 ug/ml, read-out: % Change from Control (Table II)
  inhibition at 0.01 µg/mL: -28%
ConA 4 ug/ml, compound 0.01 ug/ml, read-out: % change from control, ConA blastogenic response
  inhibition at 0.01 µg/mL: -37%
[4]
  inhibition at 0.1 µg/mL: -28%
  inhibition at 2.5 µg/mL: -22%
[5]
  inhibition at 1 µg/mL: -17%
[6]
  inhibition at 10 µg/mL: 1%
[7]
  inhibition at 25 µg/mL: -7%
[8]
  inhibition at 100 µg/mL: 47%

## CC1(C)OC2OC3C(CSCCN4CCCC4)OC(C)(C)OC3C2O1 [IIIp, 1,2:3,5-Di-O-Isopropylidene-6-deoxy-6-thio-2'-(ethyl-N"-pyrrolidyl)-α-D-glucofuranose]
ConA 1 ug/ml, compound 1 ug/ml
  Blastogenic response of normal spleen cells to Con-A: 118,909 × 10^3 cpm
[9]
  % change from control, ConA blastogenic response: -23%
  Blastogenic response of normal spleen cells to Con-A: 55,282 ± 17,762 cpm
ConA 1 ug/ml, compound 25 ug/ml
  Blastogenic response of normal spleen cells to Con-A: 101,268 ± 23,586 cpm
[10]
  % change from control, ConA blastogenic response: -11%
  Blastogenic response of normal spleen cells to Con-A: 64,122 ± 7,847 cpm
[11]
  % change from control, ConA blastogenic response: -63%
  Blastogenic response of normal spleen cells to Con-A: 26,948 ± 13,540 cpm
[12]
  % change from control, ConA blastogenic response: -94%
  Blastogenic response of normal spleen cells to Con-A: 3,976 ± 1,922 cpm
ConA 4 ug/ml, compound 1 ug/ml
  % change from control, ConA blastogenic response: -17%
  Blastogenic response of normal spleen cells to Con-A: 81,109 × 10^3 cpm
[13]
  % change from control, ConA blastogenic response: -40%
  Blastogenic response of normal spleen cells to Con-A: 58,381 ± 7,921 cpm
[14]
  % change from control, ConA blastogenic response: -33%
  Blastogenic response of normal spleen cells to Con-A: 65,424 ± 13,480 cpm
[15]
  % change from control, ConA blastogenic response: -55%
  Blastogenic response of normal spleen cells to Con-A: 43,864 ± 9,618 cpm
[16]
  % change from control, ConA blastogenic response: -91%
  Blastogenic response of normal spleen cells to Con-A: 8,310 ± 945 × 10^3 cpm
[17]
  % change from control, ConA blastogenic response: -91%
  Blastogenic response of normal spleen cells to Con-A: 8,402 ± 3,070 cpm
[2]
  inhibition at 10 µg/mL: 23%
[3]
  inhibition at 100 µg/mL: 11%
ConA 1 ug/ml, compound 300 ug/ml, read-out: % change from control, ConA blastogenic response
  inhibition at 300 µg/mL: 63%
ConA 1 ug/ml, compound 750 ug/ml, read-out: % change from control, ConA blastogenic response
  inhibition at 750 µg/mL: 94%
[5]
  inhibition at 1 µg/mL: 17%
[6]
  inhibition at 10 µg/mL: 40%
[7]
  inhibition at 25 µg/mL: 33%
[8]
  inhibition at 100 µg/mL: 55%
ConA 4 ug/ml, compound 300 ug/ml, read-out: % change from control, ConA blastogenic response
  inhibition at 300 µg/mL: 91%
ConA 4 ug/ml, compound 750 ug/ml, read-out: % change from control, ConA blastogenic response
  inhibition at 750 µg/mL: 91%
Concentration not given
  strong antiproliferative effect on ConA blastogenic response: greater than -50 % of control
